Assays:
[1] = isobaric coefficient of expansion; settings: 101.33 kPa, Liquid, Vibrating tube densimeter
[2] = 101.33 kPa, Liquid, Vibrating tube method
[3] = xn = mol fraction of the nth substance listed; settings: 101.3 kPa, Liquid, Vibrating tube method

C[N+](=O)[O-] [nitromethane]
Settings	isobaric coefficient of expansion, 278.15 K	isobaric coefficient of expansion, 288.15 K	isobaric coefficient of expansion, 298.15 K	isobaric coefficient of expansion, 308.15 K	isobaric coefficient of expansion, 318.15 K	mass density, 278.15 K [kg/m3]	mass density, 288.15 K [kg/m3]	mass density, 298.15 K [kg/m3]	mass density, 308.15 K [kg/m3]	mass density, 318.15 K [kg/m3]
[1]	0.00116 1/K	0.00118 1/K	0.0012 1/K	0.00122 1/K	0.00125 1/K	–	–	–	–	–
[2]	–	–	–	–	–	1158.25	1144.75	1131.18	1117.53	1103.79

[2H]O[2H] [water-d2] + C[N+](=O)[O-]
mass density [kg/m3], [3]
Settings	278.15 K	288.15 K	298.15 K	308.15 K	318.15 K
x1 = 0.001672	1158.21	1144.71	1131.14	1117.49	1103.75
x1 = 0.002547	1158.18	1144.68	1131.11	1117.46	1103.73
x1 = 0.004545	1158.14	1144.64	1131.07	1117.42	1103.67
x1 = 0.00623	1158.09	1144.59	1131.02	1117.37	1103.63
x1 = 0.008336	1158.04	1144.54	1130.97	1117.32	1103.58
x1 = 0.009484	1158.01	1144.51	1130.94	1117.3	1103.56
x1 = 0.01177	1157.96	1144.46	1130.89	1117.24	1103.5
x1 = 0.01408	1157.9	1144.4	1130.83	1117.19	1103.45
x1 = 0.01703	1157.83	1144.34	1130.77	1117.12	1103.38
x1 = 0.02007	1157.77	1144.27	1130.7	1117.06	1103.32
x1 = 0.02274	1157.71	1144.21	1130.64	1117	1103.26
x1 = 0.02464	1157.67	1144.17	1130.6	1116.97	1103.22
x1 = 0.02688	1157.62	1144.12	1130.55	1116.92	1103.17

C[N+](=O)[O-] [nitromethane] + O
mass density [kg/m3], [3]
Settings	278.15 K	288.15 K	298.15 K	308.15 K	318.15 K
x2 = 0.001777	1158.13	1144.64	1131.07	1117.42	1103.68
x2 = 0.002859	1158.06	1144.56	1130.99	1117.35	1103.61
x2 = 0.004913	1157.94	1144.44	1130.87	1117.22	1103.48
x2 = 0.00632	1157.85	1144.35	1130.78	1117.13	1103.39
x2 = 0.008036	1157.74	1144.24	1130.67	1117.02	1103.29
x2 = 0.009712	1157.64	1144.14	1130.57	1116.92	1103.18
x2 = 0.01188	1157.5	1144	1130.43	1116.79	1103.06
x2 = 0.01446	1157.34	1143.85	1130.28	1116.63	1102.9
x2 = 0.01696	1157.19	1143.7	1130.13	1116.49	1102.75
x2 = 0.02033	1156.99	1143.5	1129.93	1116.29	1102.56
x2 = 0.02492	1156.72	1143.23	1129.66	1116.02	1102.3
x2 = 0.02911	1156.49	1143	1129.43	1115.79	1102.07

Source: the NIST ThermoML archive (doi:10.1016/j.jct.2010.07.002)
